# According to paper PMC11353420, “Anti-Inflammatory, Cytotoxic, and Genotoxic Effects of Soybean Oligopeptides Conjugated with Mannose” (Foods, 2024):
# What was measured:
# RAW 264.7 cells = test: Cell viability (SRB) of RAW 264.7 in the presence of LPS; format: cell-based, murine; conditions: up to 400 µg/mL, LPS 1 µg/mL, 24 h
# Drosophila melanogaster = test: Somatic mutation and recombination test (SMART, wing spot test); format: in vivo; design: key to Statistical diagnosis vs DI (negative control), Small Single (1–2 Cells) / Statistical diagnosis vs DI (negative control), Large Single (>2 Cells) / Statistical diagnosis vs DI (negative control), Twin / Statistical diagnosis vs DI (negative control), Total Spots: + = positive; − = negative; i = inconclusive; conditions: for Frequency of Mutant Spots per Individual (Number of Spots), Large Single (>2 Cells) / Frequency of Mutant Spots per Individual (Number of Spots), Small Single (1–2 Cells) / Frequency of Mutant Spots per Individual (Number of Spots), Total Spots / Frequency of Mutant Spots per Individual (Number of Spots), Twin: 40 wings
# Protocol: In brief, two strains of fruit flies, including mwh/mwh and ORR; flr^3/In(3LR) TM3, ri p^p sep l(3)89Aa bx^34e e Bd^S, were mated. […] After hatching, forty round wings were collected and analyzed for mutant spots (single, large, and twin spots). The statistical analysis for the wing spot test was performed as previously described. The Drosophila study was approved by the Institute of Nutrition—Mahidol University Institutional Animal Care and Use Committee (INMU-IACUC) (COA. No. INMU-IACUC 2023/01).
# [1] = test system: Salmonella typhimurium strain TA100; test: Salmonella mutation assay (Ames test), TA100; format: cell-based
# Protocol: Overnight bacterial cultures were mixed with various doses of test compounds with (+S9) or without (−S9) and incubated at 37 °C for 20 min. The top agar was added and then poured onto a plate of minimal glucose agar. The plates were incubated at 37 °C for 48 h. The number of revertant colonies was counted and the mutagenic index (MI) was calculated. 2-aminoanthracene (2-AA) and 2-(2-furyl)-3-(5-nitro-2-furyl)-acrylamide (AF-2) were used as positive mutagens in the presence and absence of S9.
# [2] = SRB cytotoxicity assay, 3T3-L1 pre-adipocyte; format: cell-based, murine; conditions: mouse, 3T3-L1 pre-adipocytes; 3T3-L1 Pre-adipocyte, 48 h, SRB
# From the text: (§1) HEK293 (Human embryonic kidney cell line), HepG2 (Human liver carcinoma cell line), LX-2 (Human hepatic stellate cell line), and 3T3-L1 (Murine preadipocyte cell line) cells were obtained from the American Type Culture Collection (ATCC), Bethesda, MD, USA.
# 3T3-L1 Pre-adipocyte = test: SRB cytotoxicity assay, 3T3-L1 pre-adipocyte; format: cell-based, murine; conditions: 48 h
# From the text: as §1
# [3] = test system: NO production in LPS-treated RAW 264.7 macrophages; test: LPS-induced nitric oxide (NO)/nitrite production, Griess reaction; format: cell-based, murine; conditions: 100, 200, 400 µg/mL pretreatment 1 h, LPS 1 µg/mL 24 h
# Protocol: To screen the anti-inflammation ability of the compounds, the nitrite level in the cultured medium of the treated cells was determined by the Griess reaction. RAW 264.7 macrophage cells were pretreated with various concentrations of the oligopeptide and its conjugated forms (100, 200, 400 µg/mL) for an hour and then incubated with LPS (1 µg/mL) for further 24 h at 37 °C in a 5% CO2 humidified atmosphere. The culture supernatant was collected for the Griess reagent assay as previous described. The NO production was calculated by comparison with LPS-treated controls.
# [4] = test system: human peripheral blood mononuclear cells (PBMCs); test: SRB cytotoxicity assay, PBMCs; format: cell-based; conditions: up to 800 µg/mL
# From the text: (§2) As described by […] et al., human peripheral blood mononuclear cells (PBMCs) and red blood cells (RBCs) were isolated from human blood samples [41]. Human blood samples of healthy subjects obtained from Maharaj Hospital, Chiang Mai, Thailand, were anonymized and kept in a heparinized tube by the laboratory. RBCs were collected and used to determined hemolysis induction by a hemolysis assay. Ficoll-Hypaque solution was used to isolate PBMCs, as described in the manufacturer's instructions. A certificate of exemption by the Research Ethics Committee of the Faculty of Medicine, Chiang Mai University (No. EXEMPTION 8989/2022), was granted. Consent to participate was not applicable as all data were anonymized. All methods were carried out in accordance with relevant guidelines and regulations.
# [5] = SRB cytotoxicity assay, PBMCs; format: cell-based, human; conditions: human, peripheral blood mononuclear cells (PBMCs); PBMCs, 800 µg/mL; read-out: % Cell Viability (n = 5)
# From the text: as §2
# [6] = SRB cytotoxicity assay, HEK293; format: cell-based, human; conditions: human, HEK293 cells; HEK293, 48 h, SRB
# From the text: as §1
# [7] = test system: HEK293 (Human embryonic kidney cell line); test: SRB cytotoxicity assay, HEK293; format: cell-based
# From the text: as §1
smiles,measurement,setting,value
"OC[C@H]1OC(O)[C@@H](O)[C@@H](O)[C@@H]1O (stereo partly drawn) [Man, D-mannose]",cell viability of RAW 264.7 cells in the presence of LPS,RAW 264.7 cells,did not change
same,"Statistical diagnosis vs DI (negative control), Large Single (>2 Cells)",Drosophila melanogaster; 62.5 µg/mL,i
same,"Statistical diagnosis vs DI (negative control), Small Single (1–2 Cells)",Drosophila melanogaster; 62.5 µg/mL,−
same,"Statistical diagnosis vs DI (negative control), Twin",Drosophila melanogaster; 62.5 µg/mL,−
same,"Frequency of Mutant Spots per Individual (Number of Spots), Large Single (>2 Cells)",Drosophila melanogaster; 62.5 µg/mL,0.03 (1)
same,"Frequency of Mutant Spots per Individual (Number of Spots), Small Single (1–2 Cells)",Drosophila melanogaster; 62.5 µg/mL,0.40 (16)
same,"Frequency of Mutant Spots per Individual (Number of Spots), Total Spots",Drosophila melanogaster; 62.5 µg/mL,0.43 (17)
same,"Frequency of Mutant Spots per Individual (Number of Spots), Twin",Drosophila melanogaster; 62.5 µg/mL,0.00 (0)
same,"Statistical diagnosis vs DI (negative control), Large Single (>2 Cells)",Drosophila melanogaster; 125 µg/mL,i
same,"Statistical diagnosis vs DI (negative control), Small Single (1–2 Cells)",Drosophila melanogaster; 125 µg/mL,−
same,"Statistical diagnosis vs DI (negative control), Total Spots",Drosophila melanogaster; 125 µg/mL,−
same,"Statistical diagnosis vs DI (negative control), Twin",Drosophila melanogaster; 125 µg/mL,−
same,"Frequency of Mutant Spots per Individual (Number of Spots), Large Single (>2 Cells)",Drosophila melanogaster; 125 µg/mL,0.03 (1)
same,"Frequency of Mutant Spots per Individual (Number of Spots), Small Single (1–2 Cells)",Drosophila melanogaster; 125 µg/mL,0.50 (20)
same,"Frequency of Mutant Spots per Individual (Number of Spots), Total Spots",Drosophila melanogaster; 125 µg/mL,0.53 (21)
same,"Frequency of Mutant Spots per Individual (Number of Spots), Twin",Drosophila melanogaster; 125 µg/mL,0.00 (0)
same,"Statistical diagnosis vs DI (negative control), Large Single (>2 Cells)",Drosophila melanogaster; 250 µg/mL,i
same,"Statistical diagnosis vs DI (negative control), Small Single (1–2 Cells)",Drosophila melanogaster; 250 µg/mL,−
same,"Statistical diagnosis vs DI (negative control), Total Spots",Drosophila melanogaster; 250 µg/mL,−
same,"Statistical diagnosis vs DI (negative control), Twin",Drosophila melanogaster; 250 µg/mL,−
same,"Frequency of Mutant Spots per Individual (Number of Spots), Large Single (>2 Cells)",Drosophila melanogaster; 250 µg/mL,0.03 (1)
same,"Frequency of Mutant Spots per Individual (Number of Spots), Small Single (1–2 Cells)",Drosophila melanogaster; 250 µg/mL,0.43 (17)
same,"Frequency of Mutant Spots per Individual (Number of Spots), Total Spots",Drosophila melanogaster; 250 µg/mL,0.45 (18)
same,"Frequency of Mutant Spots per Individual (Number of Spots), Twin",Drosophila melanogaster; 250 µg/mL,0.00 (0)
same,"Statistical diagnosis vs DI (negative control), Large Single (>2 Cells)",Drosophila melanogaster; 500 µg/mL,i
same,"Statistical diagnosis vs DI (negative control), Small Single (1–2 Cells)",Drosophila melanogaster; 500 µg/mL,−
same,"Statistical diagnosis vs DI (negative control), Total Spots",Drosophila melanogaster; 500 µg/mL,−
same,"Statistical diagnosis vs DI (negative control), Twin",Drosophila melanogaster; 500 µg/mL,−
same,"Frequency of Mutant Spots per Individual (Number of Spots), Large Single (>2 Cells)",Drosophila melanogaster; 500 µg/mL,0.03 (1)
same,"Frequency of Mutant Spots per Individual (Number of Spots), Small Single (1–2 Cells)",Drosophila melanogaster; 500 µg/mL,0.25 (10)
same,"Frequency of Mutant Spots per Individual (Number of Spots), Total Spots",Drosophila melanogaster; 500 µg/mL,0.28 (11)
same,"Frequency of Mutant Spots per Individual (Number of Spots), Twin",Drosophila melanogaster; 500 µg/mL,0.00 (0)
same,"Statistical diagnosis vs DI (negative control), Large Single (>2 Cells)",Drosophila melanogaster; 1000 µg/mL,i
same,"Statistical diagnosis vs DI (negative control), Small Single (1–2 Cells)",Drosophila melanogaster; 1000 µg/mL,−
same,"Statistical diagnosis vs DI (negative control), Total Spots",Drosophila melanogaster; 1000 µg/mL,−
same,"Statistical diagnosis vs DI (negative control), Twin",Drosophila melanogaster; 1000 µg/mL,−
same,"Frequency of Mutant Spots per Individual (Number of Spots), Large Single (>2 Cells)",Drosophila melanogaster; 1000 µg/mL,0.03 (1)
same,"Frequency of Mutant Spots per Individual (Number of Spots), Small Single (1–2 Cells)",Drosophila melanogaster; 1000 µg/mL,0.25 (10)
same,"Frequency of Mutant Spots per Individual (Number of Spots), Total Spots",Drosophila melanogaster; 1000 µg/mL,0.28 (11)
same,"Frequency of Mutant Spots per Individual (Number of Spots), Twin",Drosophila melanogaster; 1000 µg/mL,0.00 (0)
same,"Statistical diagnosis vs DI (negative control), Large Single (>2 Cells)",Drosophila melanogaster; 2000 µg/mL,−
same,"Statistical diagnosis vs DI (negative control), Small Single (1–2 Cells)",Drosophila melanogaster; 2000 µg/mL,−
same,"Statistical diagnosis vs DI (negative control), Total Spots",Drosophila melanogaster; 2000 µg/mL,−
same,"Statistical diagnosis vs DI (negative control), Twin",Drosophila melanogaster; 2000 µg/mL,−
same,"Frequency of Mutant Spots per Individual (Number of Spots), Large Single (>2 Cells)",Drosophila melanogaster; 2000 µg/mL,0.00 (0)
same,"Frequency of Mutant Spots per Individual (Number of Spots), Small Single (1–2 Cells)",Drosophila melanogaster; 2000 µg/mL,0.23 (9)
same,"Frequency of Mutant Spots per Individual (Number of Spots), Total Spots",Drosophila melanogaster; 2000 µg/mL,0.23 (9)
same,"Frequency of Mutant Spots per Individual (Number of Spots), Twin",Drosophila melanogaster; 2000 µg/mL,0.00 (0)
same,"Statistical diagnosis vs DI (negative control), Large Single (>2 Cells)",Drosophila melanogaster; 5000 µg/mL,−
same,"Statistical diagnosis vs DI (negative control), Small Single (1–2 Cells)",Drosophila melanogaster; 5000 µg/mL,−
same,"Statistical diagnosis vs DI (negative control), Total Spots",Drosophila melanogaster; 5000 µg/mL,−
same,"Statistical diagnosis vs DI (negative control), Twin",Drosophila melanogaster; 5000 µg/mL,−
same,"Frequency of Mutant Spots per Individual (Number of Spots), Large Single (>2 Cells)",Drosophila melanogaster; 5000 µg/mL,0.00 (0)
same,"Frequency of Mutant Spots per Individual (Number of Spots), Small Single (1–2 Cells)",Drosophila melanogaster; 5000 µg/mL,0.18 (7)
same,"Frequency of Mutant Spots per Individual (Number of Spots), Total Spots",Drosophila melanogaster; 5000 µg/mL,0.18 (7)
same,"Frequency of Mutant Spots per Individual (Number of Spots), Twin",Drosophila melanogaster; 5000 µg/mL,0.00 (0)
same,DNA mutations / genome safety,"Drosophila melanogaster; all doses, up to 5000 µg/mL",did not trigger DNA mutations
same,His^+ Revertant Colonies per Plate,"[1]; TA100, +S9, 0.04 mg per plate",127.5 ± 2.5
same,His^+ Revertant Colonies per Plate,"[1]; TA100, +S9, 0.2 mg per plate",140.3 ± 2.3
same,His^+ Revertant Colonies per Plate,"[1]; TA100, +S9, 1 mg per plate",139.0 ± 0.7
same,His^+ Revertant Colonies per Plate,"[1]; TA100, +S9, 5 mg per plate",138.5 ± 4.2
same,mutagenicity,"[1]; TA100, presence and absence of the S9 mix",did not cause any mutagenicity
same,His^+ Revertant Colonies per Plate,"[1]; TA100, −S9, 0.04 mg per plate",135.2 ± 5.2
same,His^+ Revertant Colonies per Plate,"[1]; TA100, −S9, 0.2 mg per plate",137.5 ± 4.5
same,His^+ Revertant Colonies per Plate,"[1]; TA100, −S9, 1 mg per plate",135.2 ± 4.5
same,His^+ Revertant Colonies per Plate,"[1]; TA100, −S9, 5 mg per plate",129.7 ± 4.7
same,IC20 at 48 h,[2],> 1000 µg/mL
same,IC50,"3T3-L1 Pre-adipocyte; Mus musculus, 3T3-L1 Pre-adipocyte, SRB, read-out: IC50",> 1000 µg/mL
same,toxicity to cells,"3T3-L1 Pre-adipocyte; pre-3T3-L1, up to 1000 µg/mL",not toxic
same,inhibition of LPS-induced NO production,[3],did not inhibit
same,toxic effects to hPBMCs,[4],did not show any toxic effects
same,"viability at 48 h, 800 µg/mL",[5],106 ± 13.3%
same,IC20 at 48 h,[6],> 1000 µg/mL
same,toxicity to cells,"[7]; HEK293, up to 1000 µg/mL, 48 h",not toxic
same,IC50,"[7]; Homo sapiens, HEK293, 48 h, SRB, read-out: IC50",> 1000 µg/mL
